Data published in US20130005696A1, “BUFADIENOLIDE DERIVATIVES, PREPARING PROCESS THEREOF, COMPOSITION COMPRISING THE SAME AND THE USE THEREOF” (priority 2011, published 2013).

What was measured:
[1] = test system: HeLa human cervical carcinoma cell line; assay: In vitro antitumor activity assay (SRB), HeLa; format: cell-based; settings: read-out: IC50, inhibitory activity on cell proliferation of HeLa cell line
Description: (§1) HeLa human cervical carcinoma cell line, A-549 human non-small cell lung carcinoma cell line, NCI-H2228 human lung carcinoma cell line, NCI-H460 human lung carcinoma cell line, MDA-MB-231 human breast carcinoma cell line, MCF-7 human breast carcinoma cell line, Bel-7402 human hepatic carcinoma cell line, Hep3B human hepatic carcinoma cell line, QGY-7703 human hepatic carcinoma cell line, MV-4-11 human leukemic cell line, DAUDI human leukemic cell line, Jurkat human leukemic cell line, A498 renal carcinoma cell line, LoVo human colon carcinoma cell line, HCT1116 human colon carcinoma cell line, A431 human skin carcinoma cell line, PANC-1 human pancreatic carcinoma cell line, U87-MG human brain carcinoma cell line, SH-SY5Y human brain carcinoma cell line, RPMI-8226 human bone carcinoma cell line, HT1080 human fibrosarcoma cell line, PC-3 human prostatic carcinoma cell line, AGS human gastric adenocarcinoma cell line, and BGC-823 human gastric adenocarcinoma cell line were purchased from the Cell Bank of the Chinese Academy of Sciences.
(§2) The positive control is bufalin (formulated according to the common method), its purity is 98% or more by HPLC-UV and its structure is identified by NMR. The compounds to be tested and the positive control were diluted with normal saline with a concentration gradient of 10^−4 M, 10^−5 M, 10^−6 M, 10^−7 M and 10^−8 M.
(§3) According to cell growth rate, tumor cells in the log phase of growth were seeded into 96-well culture plates at 100 μL per well, and allowed to attach for 24 hours, followed by addition of a test compound or positive control at 10 μL per well. For each concentration, the test was carried out in triplicate wells. Solvent control wells with addition of normal saline into cell culture and a blank well containing only cell culture medium but without cells for zeroing were also included. The tumor cells were incubated for 72 hours at 37° C. under 5% CO2, and then the culture medium (RPMI-1640) was removed. The cells were fixed with 10% cool TCA by incubating for 1 h at 4° C., washed with distilled water for 5 times, and dried naturally in the air. A solution of SRB (Sigma) (4 mg/mL) in 1% glacial acetic acid was added at 100 μL per well, and the cells were stained for 15 minutes at room temperature, and the supernatant was discarded. The plates were washed for 5 times with 1% acetic acid, and dried in air. Finally, Tris solution was added at 150 μL per well, and the absorbance (A) was measured at a wavelength of 515 nm using a microplate reader. The growth inhibition on tumor cell proliferation was calculated according to the following equation:
(§4) Growth Inhibition (%)=[(Absorbance of negative control−Absorbance of blank)−(Absorbance of sample−Absorbance of blank)]/(Absorbance of negative control−Absorbance of blank)×100%
(§5) Drug concentration: 10 μM, 1 μM, 0.1 μM, 10 nM, 1 nM, 0.1 nM.
(§6) IC50 was fitted by GraphPad Prism 4.

[2] = test system: MCF-7 human breast carcinoma cell line; assay: In vitro antitumor activity assay (SRB), MCF-7; format: cell-based; settings: Homo sapiens, MCF7; MCF-7, 72 h, Table 3; read-out: IC50 (72 h), MCF-7
Description: as §1, §2, §3, §4, §5, §6

[3] = test system: HCT-116 human-derived tumor cell line; assay: In vitro antitumor activity assay (SRB), HCT-116; format: cell-based; settings: Homo sapiens; HCT-116, 72 h, Table 3
Description: as §1, §2
(§7) According to cell growth rate, tumor cells in the log phase of growth were seeded into 96-well culture plates at 100 μL per well, and allowed to attach for 24 hours, followed by addition of a test compound or positive control at 10 μL per well. For each concentration, the test was carried out in triplicate wells. […] Finally, Tris solution was added at 150 μL per well, and the absorbance (A) was measured at a wavelength of 515 nm using a microplate reader. The growth inhibition on tumor cell proliferation was calculated according to the following equation:
(§8) Growth Inhibition (%)=[(Absorbance of negative control−Absorbance of blank)−(Absorbance of sample−Absorbance of blank)]/(Absorbance of negative control−Absorbance of blank)×100% […]

[4] = test system: NCI-H460 human lung carcinoma cell line; assay: In vitro antitumor activity assay (SRB), NCI-H460; format: cell-based; settings: Homo sapiens; NCI-H460, 72 h, Table 3
Description: as §1, §2, §7, §8

[5] = test system: MDA-MB-231 human breast carcinoma cell line; assay: In vitro antitumor activity assay (SRB), MDA-MB-231; format: cell-based; settings: Homo sapiens; MDA-MB-231, 72 h, Table 3
Description: as §1, §2, §7, §8

[6] = test system: A-549 human non-small cell lung carcinoma cell line; assay: In vitro antitumor activity assay (SRB), A549; format: cell-based; settings: Homo sapiens; A549, 72 h, Table 3; read-out: IC50 (72 h), A549
Description: as §1, §2, §3, §4, §5, §6

[7] = test system: Jurkat human leukemic cell line; assay: In vitro antitumor activity assay (SRB), Jurkat; format: cell-based; settings: Homo sapiens, 72 h, Table 3
Description: as §1, §2, §7, §8

[8] = test system: RPMI-8226 human bone carcinoma cell line; assay: In vitro antitumor activity assay (SRB), RPMI8226; format: cell-based; settings: Homo sapiens, RPMI-8226; RPMI8226, 72 h, Table 3
Description: as §1, §2, §7, §8

[9] = test system: Hep3B human hepatic carcinoma cell line; assay: In vitro antitumor activity assay (SRB), Hep3B; format: cell-based; settings: Homo sapiens, 72 h, Table 3
Description: as §1, §2, §7, §8

[10] = test system: U87-MG human brain carcinoma cell line; assay: In vitro antitumor activity assay (SRB), U87-MG; format: cell-based; settings: Homo sapiens, U-87 MG, 72 h, Table 3
Description: as §1, §2, §7, §8

[11] = test system: HepG2 human-derived tumor cell line; assay: In vitro antitumor activity assay (SRB), HepG2; format: cell-based; settings: Homo sapiens; HepG2, 72 h, Table 3
[12] = test system: QGY-7703 human hepatic carcinoma cell line; assay: In vitro antitumor activity assay (SRB), QGY7703; format: cell-based; settings: Homo sapiens, QGY-7703; QGY7703, 72 h, Table 3
Description: as §1, §2, §7, §8

[13] = test system: MV-4-11 human leukemic cell line; assay: In vitro antitumor activity assay (SRB), MV-4-11; format: cell-based; settings: Homo sapiens, MV4-11; MV-4-11, 72 h, Table 3
Description: as §1, §2, §7, §8

[14] = test system: PC-3 human prostatic carcinoma cell line; assay: In vitro antitumor activity assay (SRB), PC-3; format: cell-based; settings: Homo sapiens, Prostatic carcinoma cell; PC-3, 72 h, Table 3; read-out: IC50 (72 h), PC-3
Description: as §1, §2, §3, §4, §5, §6

[15] = test system: BGC-823 human gastric adenocarcinoma cell line; assay: In vitro antitumor activity assay (SRB), BGC-823; format: cell-based; settings: Homo sapiens; BGC-823, 72 h, Table 3
Description: as §1, §2, §7, §8

[16] = test system: NCI-H2228 human lung carcinoma cell line; assay: In vitro antitumor activity assay (SRB), NCI-H2228; format: cell-based; settings: Homo sapiens; NCI-H2228, 72 h, Table 3
Description: as §1, §2, §7, §8

[17] = test system: AGS human gastric adenocarcinoma cell line; assay: In vitro antitumor activity assay (SRB), AGS; format: cell-based; settings: Homo sapiens, 72 h, Table 3
Description: as §1, §2, §7, §8

[18] = test system: DAUDI human leukemic cell line; assay: In vitro antitumor activity assay (SRB), Daudi; format: cell-based; settings: Homo sapiens, 72 h, Table 3
Description: as §1, §2, §7, §8

[19] = test system: HT1080 human fibrosarcoma cell line; assay: In vitro antitumor activity assay (SRB), HT1080; format: cell-based; settings: Homo sapiens, HT-1080; HT1080, 72 h, Table 3
Description: as §1, §2, §7, §8

[20] = test system: A498 renal carcinoma cell line; assay: In vitro antitumor activity assay (SRB), A498; format: cell-based, human; settings: Homo sapiens; A498, 72 h, Table 3
Description: as §1, §2, §7, §8

[21] = test system: PANC-1 human pancreatic carcinoma cell line; assay: In vitro antitumor activity assay (SRB), PANC-1; format: cell-based; settings: Homo sapiens; PANC-1, 72 h, Table 3
Description: as §1, §2, §7, §8

[22] = test system: A431 human skin carcinoma cell line; assay: In vitro antitumor activity assay (SRB), A431; format: cell-based; settings: Homo sapiens, A-431; A431, 72 h, Table 3
Description: as §1, §2, §7, §8

For `C[C@]12CC[C@H](OC(=O)NC3CCNCC3)C[C@H]1CC[C@@H]1[C@@H]2CC[C@]2(C)[C@@H](c3ccc(=O)oc3)CC[C@]12O` [II1E-01], the IC50 [1] was 1.4 nM, the IC50 [2] was 9.97 ± 1.45 nM and the IC50 [3] was 2.91 ± 0.09 nM. The IC50 [4] was 0.56 ± 0.05 nM, the IC50 [5] was 7.46 ± 0.33 nM and the IC50 [6] was 0.77 ± 0.28 nM. It also gave an IC50 [7] of 1.09 ± 0.26 nM, an IC50 [8] of 1.53 ± 0.1 nM and an IC50 [9] of over 1000 nM. It also gave an IC50 [10] of 1.28 ± 0.36 nM, an IC50 [11] of 0.51 ± 0.04 nM and an IC50 [12] of 1.11 ± 0.08 nM. It also gave an IC50 [13] of 1.12 ± 0.29 nM, an IC50 [14] of 0.41 ± 0.1 nM and an IC50 [15] of 0.81 ± 0.07 nM. It also gave an IC50 [16] of 2.5 ± 0.34 nM, an IC50 [17] of 9.62 ± 0.69 nM and an IC50 [18] of 2.86 ± 0.21 nM. It also gave an IC50 [19] of 2.9 ± 0.33 nM, an IC50 [20] of 0.4 ± 0.03 nM and an IC50 [21] of 0.72 ± 0.19 nM. It also gave an IC50 [22] of 2.62 ± 0.19 nM.
